This note sets out measurements from patent publication US20250332173A1, “COMPOUNDS AND METHODS FOR MODULATING NUCLEIC ACID SPLICING” (REMIX THERAPEUTICS INC., priority 2021, published 2025).

Read-outs that look alike come from different tables or passages of the source. Bounds are passed on as bounds.

This experiment deals with MYB mRNA. Kind of experiment: RT-qPCR splicing assay, MYB canonical junction (CJ) and alternative junction (AJ) mRNA. It counts as cell-based, human. The note with it: for AC50: increase in MYB alternative junction (AJ) mRNA, read-out: MYB AJ AC50. In outline:
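A673 or K562 cells were treated for 24 h at 37 °C with an 11-point 3-fold compound dilution series (top final concentration 10 uM, DMSO ≤0.25%). After lysis, one-step TaqMan RT-qPCR quantified junction transcripts, normalized to PPIA for A673 or to GAPDH/GUSB for K562.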

Setting [1] is: Homo sapiens, Table 5 panel, canonical junction qPCR, compound concentration having 50% response in CJ decrease, read-out: MYB IC50 (decrease in CJ mRNA levels).
Setting [2] is: Homo sapiens, decrease in MYB canonical junction (CJ) mRNA, RT-qPCR, read-out: MYB CJ IC50.

As to `Cc1cn2nc(-c3cc(F)c4c(=O)n(C5CCNCC5)cnc4c3)cc(C)c2n1` [Compound 243], the IC50 is under 100 nM under setting [1] and under 100 nM under setting [2]. For the setting “Homo sapiens, RT-qPCR”, the AC50 is under 100 nM.
`Cc1cn2cc(-c3ccc4c(=O)n(C5CCNCC5)cnc4c3)c(C)cc2n1` [Compound 244]: the IC50 under setting [1] is over 10000 nM and the IC50 under setting [2] was over 10000 nM. Further, where the note is “Homo sapiens, RT-qPCR”, the AC50 was over 10000 nM.
`Cc1nc2c(F)cc(-c3ccc4c(=O)n(C5CCNCC5)cnc4c3)cc2o1` [Compound 245]: the IC50 fell in the range of 100 to 1000 nM under setting [1] and 100 to 1000 nM under setting [2]. Also, for the setting “Homo sapiens, RT-qPCR”, the AC50 lay in the range of 100 to 1000 nM.
In the case of `Cc1cn2cc(-c3ccc4c(=O)n(C5CCN(C)CC5)cnc4c3)c(C)cc2n1` [Compound 246], the half-inhibitory concentration (IC50) lay within 1000 to 10000 nM under setting [1] and 1000 to 10000 nM under setting [2]. Further, where the note is “Homo sapiens, RT-qPCR”, the AC50 lay in the range of 1000 to 10000 nM.
On to `Cc1cn2cc(-c3ccc4c(c3)CCN(C3CCNCC3)C4=O)cc(F)c2n1` [Compound 247], for which the IC50 is, setting by setting: under setting [1], 100 to 1000 nM; under setting [2], 100 to 1000 nM. In addition, the AC50 (Homo sapiens, RT-qPCR) is 100 to 1000 nM.
Turning to `Cc1cn2cc(-c3ccc4c(=O)n(C5CCNCC5)ncc4c3)cc(F)c2n1` [Compound 248], the IC50 under setting [1] fell in the range of 100 to 1000 nM and the IC50 under setting [2] lay in the range of 100 to 1000 nM. Besides, under “Homo sapiens, RT-qPCR”, the AC50 lay in the range of 100 to 1000 nM.
Regarding `Cn1cc2cc(-c3ccc4c(=O)n(C5CCNCC5)ncc4c3)cc(F)c2n1` [Compound 249], the IC50 runs as follows: under setting [1], 1000 to 10000 nM; under setting [2], 1000 to 10000 nM. In addition, the AC50 (Homo sapiens, RT-qPCR) is 1000 to 10000 nM.
Regarding `Cc1nc2c(F)cc(-c3ccc4c(=O)n(C5CCNCC5)ncc4c3)cc2o1` [Compound 250], the IC50 reads like this: under setting [1], 100 to 1000 nM; under setting [2], 100 to 1000 nM. Moreover, the AC50 (Homo sapiens, RT-qPCR) fell in the range of 100 to 1000 nM.
With `Cc1cc(-c2ccc3c(=O)n(C4CCNCC4)ncc3c2)cc2cn(C)nc12` [Compound 251], the 50% inhibitory concentration (IC50) by setting is: under setting [1], 100 to 1000 nM; under setting [2], 100 to 1000 nM. Also, the AC50 (Homo sapiens, RT-qPCR) is 100 to 1000 nM.
For the compound `Cc1cn2cc(-c3ccc4c(c3)CCN(C3CCNCC3)C4=O)cc(C(F)(F)F)c2n1` [Compound 252], the IC50 was in the range of 1000 to 10000 nM under setting [1] and 1000 to 10000 nM under setting [2]. The AC50 (Homo sapiens, RT-qPCR) lay in the range of 1000 to 10000 nM.
For the compound `Cc1nc2c(F)cc(-c3ccc4c(=O)n(C5CCNCC5)ncc4c3)cc2s1` [Compound 253], the IC50 reads like this: under setting [1], 1000 to 10000 nM; under setting [2], 1000 to 10000 nM. For the same compound, where the note is “Homo sapiens, RT-qPCR”, the AC50 lay in the range of 1000 to 10000 nM.
`Cc1cn2cc(-c3ccc4c(=O)n(C5CCNCC5)ncc4c3)c(C)cc2n1` [Compound 254]: the IC50 under setting [1] is 1000 to 10000 nM and the IC50 under setting [2] is 1000 to 10000 nM. In addition, the AC50 (Homo sapiens, RT-qPCR) was in the range of 1000 to 10000 nM.
Consider `Cc1cn2cc(-c3ccc4c(=O)n(C5CCNCC5)ncc4c3)ncc2n1` [Compound 255], for which the IC50 is, setting by setting: under setting [1], 1000 to 10000 nM; under setting [2], 1000 to 10000 nM. Moreover, the AC50 (Homo sapiens, RT-qPCR) lay within 1000 to 10000 nM.
As for `Cc1cn2cc(-c3ccc4c(=O)n(C5CCNCC5)ncc4c3)cc(Cl)c2n1` [Compound 256], the IC50 is, setting by setting: under setting [1], 100 to 1000 nM; under setting [2], 100 to 1000 nM. Further, the AC50 (Homo sapiens, RT-qPCR) is 100 to 1000 nM.
As for `Cc1cn2cc(-c3ccc4c(=O)n(C5CCNCC5)ncc4c3)cc(C)c2n1` [Compound 257], the half-inhibitory concentration (IC50) under setting [1] is 100 to 1000 nM and the 50% inhibitory concentration (IC50) under setting [2] was 100 to 1000 nM. For the same compound, the AC50 (Homo sapiens, RT-qPCR) lay within 100 to 1000 nM.
As to `Cc1cn2nc(-c3ccc4c(=O)n(C5CCNCC5)ncc4c3)nc2c(C)n1` [Compound 259], the IC50 by setting is: under setting [1], 100 to 1000 nM; under setting [2], 100 to 1000 nM. Moreover, the AC50 (Homo sapiens, RT-qPCR) was in the range of 100 to 1000 nM.
For `Cc1cn2nc(-c3ccc4c(=O)n(C5CCNCC5)ncc4c3)cc2c(C)n1` [Compound 260], the half-maximal inhibitory concentration (IC50) under setting [1] was 1000 to 10000 nM and the IC50 under setting [2] lay within 100 to 1000 nM. For the setting “Homo sapiens, RT-qPCR”, the AC50 lay within 1000 to 10000 nM.
On to `O=c1c2ccc(-c3cn[nH]c3)cc2cnn1C1CCNCC1` [Compound 261], for which the IC50 was over 10000 nM under setting [1] and over 10000 nM under setting [2]. For the same compound, for the setting “Homo sapiens, RT-qPCR”, the AC50 was over 10000 nM.
For `Cc1cn2cc(-c3ccc4c(=O)n(C5CCNCC5)ncc4c3)cc(C(F)(F)F)c2n1` [Compound 262], the IC50 fell in the range of 1000 to 10000 nM under setting [1] and 100 to 1000 nM under setting [2]. Where the note is “Homo sapiens, RT-qPCR”, the concentration at half-maximal activity (AC50) lay within 1000 to 10000 nM.
For the compound `Cn1cc2ccc(-c3ccc4c(=O)n(C5CCNCC5)ncc4c3)cc2n1` [Compound 263], the IC50 is over 10000 nM under setting [1] and over 10000 nM under setting [2]. For the same compound, the AC50 (Homo sapiens, RT-qPCR) was over 10000 nM.
Take `Cc1cn2nc(-c3ccc4c(=O)n(C5CCNC5)ncc4c3)cc(C)c2n1` (stereo not drawn) [Compound 264]: the IC50 under setting [1] was in the range of 1000 to 10000 nM and the IC50 under setting [2] lay within 1000 to 10000 nM. Also, the concentration at half-maximal activity (AC50) (Homo sapiens, RT-qPCR) was in the range of 1000 to 10000 nM.
In the case of `Cc1cn2nc(-c3ccc4c(=O)n(C5CCN(C)CC5)ncc4c3)cc(C)c2n1` [Compound 265], the IC50 under setting [1] was 100 to 1000 nM and the IC50 under setting [2] is under 100 nM. For the same compound, the concentration at half-maximal activity (AC50) (Homo sapiens, RT-qPCR) fell in the range of 100 to 1000 nM.
For the compound `Cc1cn2nc(-c3ccc4c(=O)n([C@@H]5CCNC6(CC6)C5)cnc4c3)cc(C)c2n1` [Compound 444], the IC50 runs as follows: (Table 5 panel, canonical junction qPCR, compound concentration having 50% response in CJ decrease, read-out: MYB IC50 (decrease in CJ mRNA levels)) under 100 nM; (decrease in MYB canonical junction (CJ) mRNA, RT-qPCR, read-out: MYB CJ IC50) under 100 nM. Besides, the AC50 (RT-qPCR) is under 100 nM.
